Experiments:
Format in all cases: in vivo
[1] = test system: ABUTH: Abutilon theophrasti; assay: Pre-emergence herbicidal effect; conditions: application rate 320 g/ha, scored visually after 3 weeks, 100% = plants have died, 0% = like control plants
From the text: (§1) 1. Pre-Emergence Herbicidal Effect and Crop Plant Compatibility Seeds of monocotyledonous and dicotyledonous weed plants and crop plants are laid out in sandy loam soil in wood-fiber pots and covered with soil. The compounds of the invention, formulated in the form of wettable powders (WP) or as emulsion concentrates (EC), are then applied to the surface of the covering soil as aqueous suspension or emulsion at a water application rate equating to 600 to 800 L/ha with addition of 0.2% wetting agent. After the treatment, the pots are placed in a greenhouse and kept under good growth conditions for the trial plants. The damage to the test plants is scored visually after a test period of 3 weeks by comparison with untreated controls (herbicidal activity in percent (%): 100% activity=the plants have died, 0% activity=like control plants). [table]

[2] = test system: ALOMY: Alopecurus myosuroides; assay: Pre-emergence herbicidal effect; conditions: application rate 320 g/ha, scored visually after 3 weeks, 100% = plants have died, 0% = like control plants
From the text: as §1

[3] = test system: ECHCG: Echinochloa crus-galli; assay: Pre-emergence herbicidal effect; conditions: application rate 320 g/ha, scored visually after 3 weeks, 100% = plants have died, 0% = like control plants
From the text: as §1

[4] = test system: LOLMU: Lolium multiflorum; assay: Pre-emergence herbicidal effect; conditions: application rate 320 g/ha, scored visually after 3 weeks, 100% = plants have died, 0% = like control plants
From the text: as §1

[5] = test system: MATIN: Matricaria inodora; assay: Pre-emergence herbicidal effect; conditions: application rate 320 g/ha, scored visually after 3 weeks, 100% = plants have died, 0% = like control plants
From the text: as §1

[6] = test system: POLCO: Polygonum convolvulus; assay: Pre-emergence herbicidal effect; conditions: application rate 320 g/ha, scored visually after 3 weeks, 100% = plants have died, 0% = like control plants
From the text: as §1

SETVI: Setaria viridis = assay: Pre-emergence herbicidal effect; conditions: application rate 320 g/ha, scored visually after 3 weeks, 100% = plants have died, 0% = like control plants
From the text: as §1

STEME: Stellaria media [7] = assay: Pre-emergence herbicidal effect; conditions: application rate 320 g/ha, scored visually after 3 weeks, 100% = plants have died, 0% = like control plants
From the text: as §1

VERPE: Veronica persica [8] = assay: Pre-emergence herbicidal effect; conditions: application rate 320 g/ha, scored visually after 3 weeks, 100% = plants have died, 0% = like control plants
From the text: as §1

VERPE: Veronica persica [9] = assay: Post-emergence herbicidal effect; conditions: application rate 320 g/ha, treated at one-leaf stage, assessed visually after about 3 weeks, 100% = plants have died
Description: (§2) [table] 2. Post-Emergence Herbicidal Effect and Crop Plant Compatibility Seeds of monocotyledonous and dicotyledonous weed and crop plants are laid out in sandy loam soil in wood-fiber pots, covered with soil and cultivated in a greenhouse under good growth conditions. 2 to 3 weeks after sowing, the test plants are treated at the one-leaf stage. The compounds of the invention, formulated in the form of wettable powders (WP) or as emulsion concentrates (EC), are then sprayed onto the green parts of the plants as aqueous suspension or emulsion at a water application rate equating to 600 to 800 L/ha with addition of 0.2% wetting agent. After the test plants have been left to stand in the greenhouse under optimal growth conditions for about 3 weeks, the action of the preparations is assessed visually in comparison to untreated controls (herbicidal action in percent (%): 100% activity=the plants have died, 0% activity=like control plants).

VIOTR: Viola tricolor = assay: Post-emergence herbicidal effect; conditions: application rate 320 g/ha, treated at one-leaf stage, assessed visually after about 3 weeks, 100% = plants have died
Description: as §2

[10] = test system: ALOMY: Alopecurus myosuroides; assay: Post-emergence herbicidal effect; conditions: application rate 320 g/ha, treated at one-leaf stage, assessed visually after about 3 weeks, 100% = plants have died
Description: as §2

[11] = test system: AMARE: Amaranthus retroflexus; assay: Post-emergence herbicidal effect; conditions: application rate 320 g/ha, treated at one-leaf stage, assessed visually after about 3 weeks, 100% = plants have died
Description: as §2

STEME: Stellaria media [12] = assay: Post-emergence herbicidal effect; conditions: application rate 320 g/ha, treated at one-leaf stage, assessed visually after about 3 weeks, 100% = plants have died
Description: as §2

[13] = test system: ECHCG: Echinochloa crus-galli; assay: Post-emergence herbicidal effect; conditions: application rate 320 g/ha, treated at one-leaf stage, assessed visually after about 3 weeks, 100% = plants have died
Description: as §2

SMILES	Herbicidal activity with respect to [%] ABUTH [1] [%]	Herbicidal activity with respect to [%] ALOMY [2] [%]	Herbicidal activity with respect to [%] ECHCG [3] [%]	Herbicidal activity with respect to [%] LOLMU [4] [%]	Herbicidal activity with respect to [%] MATIN [5] [%]	Herbicidal activity with respect to [%] POLCO [6] [%]	Herbicidal activity with respect to [%] SETVI (SETVI: Setaria viridis) [%]	Herbicidal activity with respect to [%] STEME (STEME: Stellaria media [7]) [%]	Herbicidal activity with respect to [%] VERPE (VERPE: Veronica persica [8]) [%]	Herbicidal activity with respect to [%] VERPE (VERPE: Veronica persica [9]) [%]	Herbicidal activity with respect to [%] VIOTR (VIOTR: Viola tricolor) [%]	Herbicidal activity with respect to [%] ALOMY [10] [%]	Herbicidal activity with respect to [%] AMARE [11] [%]	Herbicidal activity with respect to [%] STEME (STEME: Stellaria media [12]) [%]	Herbicidal activity with respect to [%] ECHCG [13] [%]
Cc1ccc2c(c1)[C@H](Nc1nnc(C(=O)N(C)C)c(N)n1)[C@@H](C)C2 [Example 1.40]	90	100	100	100	100	100	100	100	100	100	80	–	–	–	–
CNC(=O)c1nnc(N[C@@H]2CCc3ccc(C)cc32)nc1N [Example 1.76]	100	100	100	–	100	100	100	–	–	–	–	80	80	100	–
CS(=O)(=O)c1nnc(N[C@@H]2CCCc3ccccc32)nc1N [Example 1.66]	100	80	100	100	100	100	100	100	100	100	90	–	–	100	–
Nc1nc(NC2CCOc3ccc(F)cc32)nnc1C(F)(F)F (racemic) [Example 1.49]	–	100	100	100	100	100	100	100	100	100	90	80	80	90	80
Cc1ccc2c(c1)[C@H](Nc1nnc(S(C)(=O)=O)c(N)n1)CCC2 [Example 1.68]	100	100	100	100	100	100	100	100	100	80	90	100	–	100	80
Nc1nc(N[C@@H]2CCCc3ccccc32)nnc1C(F)(F)F [Example 1.22]	90	100	100	–	100	100	100	100	100	100	100	100	100	100	100
Cc1ccc2c(c1)[C@H](Nc1nnc([S+](C)[O-])c(N)n1)CCC2 (stereo partly drawn) [Example 1.69]	–	90	100	90	100	100	100	100	100	80	80	90	90	100	80
Cc1ccc2c(c1)[C@H](Nc1nnc(C(N)=O)c(N)n1)CC2 [Example 1.78]	100	100	100	–	100	90	100	–	–	–	80	100	80	100	–
Nc1nc(NC2CCOc3ccccc32)nnc1C(F)(F)F (stereo not drawn) [Example 1.47, N^3-(3,4-Dihydro-2H-chromen-4-yl)-6-(trifluoromethyl)-1,2,4-triazine-3,5-diamine]	–	80	100	–	100	100	100	100	100	100	100	100	100	100	100
CCOC(=O)c1nnc(N[C@H]2c3cc(C)ccc3C[C@@H]2C)nc1N [Example 1.21]	–	90	100	–	100	100	100	–	80	100	80	80	90	100	80
Cc1ccc2c(c1)[C@H](Nc1nnc(S(C)(=O)=O)c(N)n1)[C@@H](C)C2 [Example 1.45]	90	100	100	100	100	100	100	100	100	90	90	–	80	90	100
CC(=O)c1nnc(N[C@H]2c3cc(C)ccc3C[C@@H]2C)nc1N [Example 1.26]	100	100	100	–	100	100	100	100	100	100	100	–	90	100	100

From patent US10743540B2, “3-amino-1,2,4-triazine derivatives and their use for controlling undesired plant growth” (BAYER CROPSCIENCE AKTIENGESELLSCHAFT, priority 2016, dated 2020)
